Values quoted from earlier work, collected in US8753679B2, “Capsule formulation of pirfenidone and pharmaceutically acceptable excipients” (Intermune, Inc., priority 2005, dated 2014).
Like-named read-outs stand apart in the source and are kept apart here.

How the values were obtained:
[1] = single oral dose 400 mg as four 100 mg capsules of 100% pirfenidone, 10 healthy adult males, plasma
[2] = oral 400 mg, capsule of 100% pirfenidone
[3] = test system: benign prostate hypertrophy; conditions: oral pirfenidone, older men with clinically advanced BPH
[4] = 200 mg single dose on day 1, coated tablet with excipients, 15 patients, serum
[5] = test system: pulmonary fibrosis; conditions: after 4 to 6 months on oral pirfenidone
[6] = test system: human mesenchymal-like cells (including lung fibroblasts, skin fibroblasts, prostate stromal cells, and renal mesangial cells)

AUC6hr [1]: 20.8±10.0 μg/mL-hr
T1/2 [1]: 2.2 ± 0.6 h
Tmax [1]: 0.9 ± 0.3 h
Cmax ([1]; gas chromatography): 6300 ± 2500 ng/mL
T1/2 ([2]; ten human volunteers): 2.87 ± 0.22 h
time at which maximum serum pirfenidone level was reached ([2]; ten human volunteers (FIG. 3)): between one and three hours
AUC4hr [4]: 7300 ± 1600 ng·h/mL
T1/2 [4]: 3.5 ± 2.2 h
Tmax [4]: 1.8 ± 1.1 h
Cmax ([4]; HPLC): 2700 ± 700 ng/mL
SMILES: Cc1ccc(=O)n(-c2ccccc2)c1 [Pirfenidone, 5-methyl-1-phenyl-2-(1H)-pyridone]
observed side effects (after oral administration, drowsiness, gastric nausea or photosensitivity rash): relatively mild
serious adverse reactions (clinical investigations): No serious adverse reactions
response of patients based on objective criteria [3]: functional improvement
lung function (pulmonary function tests, VC, DLCO) [5]: inhibition or blocking of further deterioration in lung function
effective levels relative to levels exerting pharmacologically toxic effects on the cells ([6]; graded concentrations in cell culture media): ten to twenty times lower
effect on excessive cell proliferation induced by cytokine growth factors (TGF-β1, bFGF, PDGF, and EGF) ([6]; in vitro cell cultures): pharmacologic inhibition
